Where a name gives a salt, the structure may show the parent alone. Active and inactive are the calls of the source.
Key:
[1] = target: NAD-dependent protein deacylase sirtuin-5, mitochondrial (Homo sapiens, UniProt Q9NXA8); assay: blockers of sirtuin-5 peptide desuccinylation – biochemical, fluorescence imaging, cherry-pick, set 6, dose response (AID 720597)
[2] = target: T1, Disintegrin and metalloproteinase domain-containing protein 17 (Homo sapiens, UniProt P78536); assay: exosite inhibitors of ADAM17, dose response, biochemical (AID 743260)
[3] = inhibition of ADAM10 peptide cleavage – biochemical, FRET peptide substrate, recombinant human ADAM10, selectivity assay for ADAM17 exosite inhibitor project, dose response (AID 743259);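 also: ADAM10 enzyme cleaving a FRET peptide substrate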
HEK293 [4] = assay: cells; type: functional, cell-based; conditions: Homo sapiens
HEK293 [5] = assay: NOD2 signaling inhibitors in MDP-stimulated cells, cell-based, uHTS, luminescence (AID 2001); type: functional; conditions: Homo sapiens
HEK293 [6] = assay: inhibition of NOD1-driven NF-kB reporter – cell-based, luminescence, uHTS, primary screen (AID 1578); type: functional; conditions: Homo sapiens
[7] = Trypanosoma cruzi growth suppression in host cells – NIH3T3 host cells, beta-gal luminescence, confirmation (AID 2044); type: functional, cell-based;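 also: intracellular parasites grown in NIH/3T3 mouse fibroblasts as host cells; luminescent beta-galactosidase reporter signal from transgenic T. cruzi replicating inside host cells; inhibitors lower the luminescence signal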
[8] = NIH3T3 cell viability loss – ATP luminescence, mouse fibroblasts, counter-screen, dose response (AID 2010); type: functional, cell-based;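 also: cells exposed to compound for about 90 hours before reading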
HEK293 [9] = assay: cells; type: functional, cell-based; conditions: Homo sapiens; remark: listed apart in the source
[10] = HGIII-sPLA2 enzyme inhibition potency – biochemical, QFRET, IC50, dose response (AID 743457);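 also: green fluorescence rise as the enzyme cleaves BODIPY PC-A2 in liposomes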
HEK293 [11] = assay: cells; conditions: Homo sapiens
HEK293 [12] = assay: cells; type: functional, cell-based; conditions: Homo sapiens; remark: listed apart in the source
Caspase-7 = Caspase-7 (Homo sapiens, UniProt P55210); assay: caspase-7 enzyme inhibition, selectivity check – biochemical, DEVD-R110 fluorescence, cherry-pick, selectivity assay for caspase-6 inhibitor project, dose response (AID 743295); type: functional
Caspase-8 = Caspase-8 (Homo sapiens, UniProt Q14790); assay: inhibitors of purified CASP8 protease – biochemical, Z-IETD-R110 fluorescence, cherry-picked samples, selectivity assay for caspase-6 inhibitor project, dose response (AID 743294)
Caspase-6 = Caspase-6 (Homo sapiens, UniProt P55212); assay: inhibition of CASP6 peptide cleavage – biochemical, VEID-R110 fluorescence, cherry-pick, dose response (AID 720632)
Major prion protein = Major prion protein (Homo sapiens, UniProt P04156); type: functional, cell-based
cells [13] = assay: cells
[14] = rise of 4N DNA cells, HeLa – IC50, dose response (AID 1117351); type: functional, cell-based
[15] = rise of 2N DNA cells, HeLa – IC50, dose response (AID 1117349); type: functional, cell-based
cells [16] = type: functional, cell-based; conditions: INS-1E
[17] = toxicity to human HepG2 hepatoma cells – cell-based, plate reader, dry powder samples, cytotoxicity control, dose response (AID 1159569); type: functional;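 also: inhibitor potency with signal falling toward the positive control level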
[18] = toxicity to human hepatoma HepG2 cells – cell-based, cherry-picked samples, cytotoxicity control, dose response (AID 1159577); type: functional
[19] = P. falciparum Dd2 growth inhibitors, dose response, SYBR Green, cherry-picked samples (AID 1159567); type: functional, cell-based
[20] = growth inhibition of yeast DHODH-expressing 3D7 parasites – SYBR Green, dry powder samples, dose response (AID 1159570); type: functional, cell-based;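 also: parasite growth measured after 72 hours of compound exposure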
[21] = Dd2 malaria parasite growth inhibition potency – SYBR Green, dry powder samples, dose response (AID 1159566); type: functional, cell-based;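 also: potency for growth inhibition with lower SYBR green DNA signal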
[22] = growth inhibition of PfATP4-mutant resistant parasites – NITD609-resistant line, SYBR Green, dry powder, dose response (AID 1159571); type: functional, cell-based;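 also: parasites synchronized at ring stage by sorbitol before testing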
[23] = target: Metabotropic glutamate receptor 5 (Rattus norvegicus, UniProt P31424); assay: Identification of a glycine sulfonamide based non-MPEP site positive allosteric potentiator (PAM) of mGlu5 (calcium_assay).; type: functional
cells [24] = assay: cells; remark: listed apart in the source
[25] = target: T1, Disintegrin and metalloproteinase domain-containing protein 17; assay: inhibition of ADAM17 substrate cleavage – biochemical, quenched FRET substrate, counter-screen for ADAM10 exosite inhibitor project, dose response (AID 743253)
[26] = potency of ADAM10 substrate cleavage blockers – biochemical, QFRET, dose response (AID 743254);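 also: ADAM10 enzyme with the DM2 quenched FRET peptide as substrate; EDANS fluorescence gain as the protease cuts the substrate; inhibitor potency against ADAM10 proteolytic activity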

Structure (SMILES): C[C@H](CO)N1C[C@H](C)[C@H](CN(C)Cc2ccncc2)Oc2ncc(C#CCN(C)C)cc2C1=O
- AC50 [1]: > 30 µM (inactive)

Structure (SMILES): COc1ccc(N(C)S(=O)(=O)c2cccc(C(=O)OC(C(=O)Nc3cc(C)cc(C)c3)c3ccccc3)c2)cc1 (stereo not given)
- IC50 [2]: > 69.5 µM (inactive)
- IC50 [3]: > 69.5 µM (inactive)

Structure (SMILES): Fc1ccc(NC(S)=Nc2nccs2)cc1
- IC50 (HEK293 [4]): > 20 µM (inactive)
- IC50 (HEK293 [5]): 6.34 µM (inactive)
- EC50 (HEK293 [6]): 5.3 µM (active)
- EC50 [7]: 2.79 µM (active)
- EC50 [8]: > 60 µM (inconclusive)
- IC50 (HEK293 [9]): > 20 µM (inactive)
- IC50 [10]: > 122 µM (inactive)
- IC50 (HEK293 [11]): > 20 µM (inactive)
- IC50 (HEK293 [12]): > 20 µM (inactive)

Structure (SMILES): CCCCN(C(=O)c1cccc(-n2cccc2)c1)c1c(N)n(Cc2ccccc2)c(=O)[nH]c1=O
- AC50 (Caspase-7): > 22 µM (inactive)
- AC50 (Caspase-8): 46.1 µM (active)
- AC50 (Caspase-6): 4.26 µM (active)

Structure (SMILES): CCOC(=O)CSc1nc(C(C)(C)C)nc2ccccc12
- IC50 (Major prion protein): 6.98 µM (active)
- IC50 (cells [13]): > 138 µM (inactive)

Structure (SMILES): Cc1ccccc1C(OCCN(C)C)c1ccccc1 (stereo not given) [ORPHENADRINE CITRATE]
- IC50 [14]: > 10 µM (inactive)
- IC50 [15]: > 10 µM (inactive)
- IC50 (cells [16]): > 33.3 µM (inactive)

Structure (SMILES): Cc1cccc(S(=O)(=O)N2C[C@@H]3N[C@H](C2)[C@H]3c2ccc(-c3ccncc3)cc2)c1
- AC50 [17]: 41.5 µM (active)
- AC50 [18]: > 39 µM (inactive)
- AC50 [19]: 1.84 µM (active)
- AC50 [20]: 2.12 µM (active)
- AC50 [21]: 1.48 µM (active)
- AC50 [22]: 3.58 µM (active)

Structure (SMILES): CC(C)(C)NC(=O)CN(c1cc(C(F)(F)F)ccc1Cl)S(C)(=O)=O
- EC50 [23]: > 30 µM (inactive)

Structure (SMILES): CCCN1CCc2c(sc(NC(=O)C3CCN(S(=O)(=O)c4cccs4)CC3)c2C(N)=O)C1
- AC50 (cells [24]): 5.17 µM (active)

Structure (SMILES): Cc1cc(C)cc(NS(=O)(=O)c2ccc(NC(=S)NC(=O)c3ccc(Br)o3)cc2)c1
- IC50 [25]: > 69.5 µM (inactive)
- IC50 [26]: 11.7 µM (inactive)
